According to patent US20240197610A1, “CERAMIDE GROWTH PROMOTING AGENT” (TAKASAGO INTERNATIONAL CORPORATION, priority 2020, published 2024):

System: late differentiated cultured human keratinocytes (LDKs)
Assay: Ceramide growth test in cultured human keratinocytes (LC-ESI-MS/MS quantification of ceramide species)
Assay type: cell-based
Protocol: Experiments were conducted using undifferentiated and late differentiated cultured human keratinocytes (KCs). Human keratinocytes were cultured in a serum-free KC growth medium containing 0.07 mM calcium, and collected to be undifferentiated cells when KCs occupied up to about 60% to 70% of the total area of the culture petri dish (about 60% to 70% confluence). KCs were cultured in a serum-free KC growth medium containing 0.07 mM of calcium, and the medium was replaced with DMEM containing 10% fetal bovine serum containing 1.2 mM of calcium, 10 μg/mL insulin, 0.4 μg/mL hydrocortisone, and 50 μg/mL of vitamin C and Ham's F-12 (2:1, v/v) when KCs occupied up to about 70% to 80% of the total area of the culture petri dish (about 70% to 80% confluence), followed by culturing for 8 days. Next, cells cultured for 3 days in a DMEM medium containing 10% fetal bovine serum containing 1.2 mM of calcium, 10 μg/mL insulin, 0.4 μg/mL hydrocortisone, and 50 μg/mL of vitamin C were used as late differentiated cultured human keratinocytes (LDKs).
From the second day of culture to the fourth, sixth, eighth, ninth, and tenth days, the ceramide preparation (I % ceramide NDS solution) prepared in Example 1 was diluted with a medium, filtered with a filter paper having a pore size of 0.45 μm, and 15.9 μL, 79.6 μL, and 397.7 μL (=10 μM, 50 μM, 250 μM) thereof were added, separately. In addition, 79.6 μL of a Blk solution not containing ceramide prepared in Comparative Example 1 was added, followed by culturing.
100 μg of each of the culture solutions prepared above and 100 μmol of an internal standard substance mixture (C17 (carbon number 17)-ceramide NS=N-octadecanoylamino-C17 sphingosine, C17-sphingosine, C17-dihydrosphingosine) were added to a mixed solution of a 0.1 N HCl aqueous solution: chloroform: methanol (volume ratio 1:2:1) and stirred, and then the organic phase of the lower layer was dried in vacuo, and the extraction drying operation was repeated twice. The obtained residue was dissolved in 200 μl of a methanol/acetonitrile equivalent mixture, and analyzed by the following liquid chromatography tandem mass spectrometry (LC-ESI-MS/MS) system (API 3200 QTRAP mass, ABCIEX). […]
10 μL of the extracted sample was analyzed by HPLC (HTS HPLC system manufactured by Shiseido Co., Ltd.) with a reverse phase KINTEX C18 column (2.1×50 mm, ID=2.6 μm). The column was previously equilibrated with a solvent A (MeOH: 0.05% formic acid aqueous solution: 80:20), the lipid was dissolved in a solvent B(2-propanol:0.05% formic acid methanol solution: 99:1), and a mass spectrum was detected in a positive mode by electrospray ionization with a gradient applied at a flow rate of 0.3 ml/min. […]

CCCCCCCCCCCCCCCCCC(=O)N[C@@H](CO)[C@H](O)CCCCCCCCCCCCCCC [ceramide NDS, (2S,3R)-2-octadecanoylaminooctadecane-1,3-diol]
ceramide NSs (acyl chain length 14 to 26) amount (Example 1 preparation added at 10 μM, 50 μM, 250 μM, 10 days culture, p<0.01 vs LDK without ceramide NDS, FIG. 4): significantly increased
ceramide NDSs (different acyl chain lengths of 14 to 26) amount (Example 1 preparation added at 10 μM, 50 μM, 250 μM, 10 days culture, p<0.01 vs LDK without ceramide NDS, FIG. 5): significantly increased
ceramide EOSs (ω-hydroxy acid amide bond of 30 and 32 carbon atoms, esterified with linoleic acid at ω-position) amount (Example 1 preparation added at 10 μM, 50 μM, 250 μM, 10 days culture, p<0.01 vs LDKs without ceramide NDS, FIG. 3): significantly increased
growth of various ceramide species (ceramide preparation added to keratinocyte culture): are grown
